Test results published in ChEMBL document CHEMBL1201862, “PubChem BioAssay data set” (2004).
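All cell lines were grown in 96-well plates and treated with compound for 48 hours. GI50 = concentration required for 50% inhibition of growth.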 The source made the active and inactive calls. No stated cut-off is given here; in the data, active = GI50 up to about 1.1 µM and inactive = higher.

Assays:
Test in all cases: NCI-60 cell line screen, 48 h
CCRF-CEM = tested on: CCRF-CEM
DU-145 = tested on: DU-145
SW-620 = tested on: SW-620
HL-60 = tested on: HL-60
SF-539 = tested on: SF-539
U-251 = tested on: U-251
SNB-19 = tested on: SNB-19
HCT-116 = tested on: HCT-116
A498 = tested on: A498
OVCAR-8 = tested on: OVCAR-8
Hs-578T = tested on: Hs-578T
NCI-H23 = tested on: NCI-H23
MOLT-4 = tested on: MOLT-4
IGROV-1 = tested on: IGROV-1
LOX IMVI = tested on: LOX IMVI
SK-OV-3 = tested on: SK-OV-3
SK-MEL-2 = tested on: SK-MEL-2
HCC 2998 = tested on: HCC 2998
T47D = tested on: T47D
TK-10 = tested on: TK-10
CAKI-1 = tested on: CAKI-1
ACHN = tested on: ACHN
BT-549 = tested on: BT-549
UACC-62 = tested on: UACC-62
OVCAR-5 = tested on: OVCAR-5
Malme-3M = tested on: Malme-3M
786-0 = tested on: 786-0
MCF7 = tested on: MCF7
UO-31 = tested on: UO-31
RXF 393 = tested on: RXF 393
MDA-MB-231 = tested on: MDA-MB-231
A549 = tested on: A549
SK-MEL-5 = tested on: SK-MEL-5
SF-295 = tested on: SF-295
PC-3 = tested on: PC-3
SR = tested on: SR
HCT-15 = tested on: HCT-15
MDA-N = tested on: MDA-N
RPMI-8226 = tested on: RPMI-8226
KM12 = tested on: KM12
COLO 205 = tested on: COLO 205
NCI-H226 = tested on: NCI-H226
NCI-H522 = tested on: NCI-H522
EKVX = tested on: EKVX
UACC-257 = tested on: UACC-257
OVCAR-3 = tested on: OVCAR-3
MDA-MB-435 = tested on: MDA-MB-435
K562 = tested on: K562
HT-29 = tested on: HT-29
OVCAR-4 = tested on: OVCAR-4
SK-MEL-28 = tested on: SK-MEL-28
NCI-H460 = tested on: NCI-H460
M14 = tested on: M14
SNB-75 = tested on: SNB-75
HOP-92 = tested on: HOP-92
NCI/ADR-RES = tested on: NCI/ADR-RES
HOP-62 = tested on: HOP-62
SF-268 = tested on: SF-268
SN12C = tested on: SN12C

**Q.** `C=CCCC(=O)CC(O)(C(F)(F)F)C(F)(F)F` was tested. Which GI50 (CCRF-CEM) did it give?
**A.** The GI50 was > 100 µM (inactive).

**Q.** And the GI50 (DU-145)?
**A.** Its GI50 is > 100 µM (inactive).

**Q.** And the GI50 (SW-620)?
**A.** Its GI50 is > 100 µM (inactive).

**Q.** And the GI50 (HL-60)?
**A.** Its GI50 is > 100 µM (inactive).

**Q.** What about the GI50 (SF-539) of the same compound?
**A.** The GI50 was > 100 µM (inactive).

**Q.** What about the GI50 (U-251) of the same compound?
**A.** Its GI50 is > 100 µM (inactive).

**Q.** And the GI50 (SNB-19)?
**A.** Its GI50 is > 100 µM (inactive).

**Q.** And the GI50 (HCT-116)?
**A.** Its GI50 is > 100 µM (inactive).

**Q.** And the GI50 (A498)?
**A.** The GI50 was > 100 µM (inactive).

**Q.** And the GI50 (OVCAR-8)?
**A.** The GI50 was > 100 µM (inactive).

**Q.** And the GI50 (Hs-578T)?
**A.** The GI50 was > 100 µM (inactive).

**Q.** And the GI50 (NCI-H23)?
**A.** The GI50 was > 100 µM (inactive).

**Q.** And the GI50 (MOLT-4)?
**A.** The GI50 was > 100 µM (inactive).

**Q.** And the GI50 (IGROV-1)?
**A.** Its GI50 is > 100 µM (inactive).

**Q.** What about the GI50 (LOX IMVI) of the same compound?
**A.** Its GI50 is > 100 µM (inactive).

**Q.** What about the GI50 (SK-OV-3) of the same compound?
**A.** The GI50 was > 100 µM (inactive).

**Q.** What about the GI50 (SK-MEL-2) of the same compound?
**A.** The GI50 was > 100 µM (inactive).

**Q.** What about the GI50 (HCC 2998) of the same compound?
**A.** Its GI50 is > 100 µM (inactive).

**Q.** And the GI50 (T47D)?
**A.** Its GI50 is > 100 µM (inactive).

**Q.** And the GI50 (TK-10)?
**A.** Its GI50 is > 100 µM (inactive).

**Q.** And the GI50 (CAKI-1)?
**A.** Its GI50 is > 100 µM (inactive).

**Q.** What about the GI50 (ACHN) of the same compound?
**A.** The GI50 was > 100 µM (inactive).

**Q.** What about the GI50 (BT-549) of the same compound?
**A.** The GI50 was > 100 µM (inactive).

**Q.** What about the GI50 (UACC-62) of the same compound?
**A.** Its GI50 is > 100 µM (inactive).

**Q.** What about the GI50 (OVCAR-5) of the same compound?
**A.** The GI50 was > 100 µM (inactive).

**Q.** And the GI50 (Malme-3M)?
**A.** Its GI50 is > 100 µM (inactive).

**Q.** And the GI50 (786-0)?
**A.** Its GI50 is > 100 µM (inactive).

**Q.** What about the GI50 (MCF7) of the same compound?
**A.** The GI50 was > 100 µM (inactive).

**Q.** And the GI50 (UO-31)?
**A.** Its GI50 is > 100 µM (inactive).

**Q.** What about the GI50 (RXF 393) of the same compound?
**A.** Its GI50 is > 100 µM (inactive).

**Q.** And the GI50 (MDA-MB-231)?
**A.** Its GI50 is > 100 µM (inactive).

**Q.** And the GI50 (A549)?
**A.** Its GI50 is > 100 µM (inactive).

**Q.** And the GI50 (SK-MEL-5)?
**A.** The GI50 was > 100 µM (inactive).

**Q.** What about the GI50 (SF-295) of the same compound?
**A.** The GI50 was > 100 µM (inactive).

**Q.** And the GI50 (PC-3)?
**A.** The GI50 was > 100 µM (inactive).

**Q.** And the GI50 (SR)?
**A.** The GI50 was > 100 µM (inactive).

**Q.** And the GI50 (HCT-15)?
**A.** The GI50 was > 100 µM.

**Q.** And the GI50 (MDA-N)?
**A.** Its GI50 is > 100 µM (inactive).

**Q.** What about the GI50 (RPMI-8226) of the same compound?
**A.** Its GI50 is > 100 µM (inactive).

**Q.** What about the GI50 (KM12) of the same compound?
**A.** The GI50 was > 100 µM (inactive).

**Q.** And the GI50 (COLO 205)?
**A.** Its GI50 is > 100 µM (inactive).

**Q.** And the GI50 (NCI-H226)?
**A.** Its GI50 is > 100 µM (inactive).

**Q.** And the GI50 (NCI-H522)?
**A.** The GI50 was > 100 µM (inactive).

**Q.** What about the GI50 (EKVX) of the same compound?
**A.** Its GI50 is > 100 µM (inactive).

**Q.** And the GI50 (UACC-257)?
**A.** Its GI50 is > 100 µM (inactive).

**Q.** And the GI50 (OVCAR-3)?
**A.** The GI50 was > 100 µM (inactive).

**Q.** And the GI50 (MDA-MB-435)?
**A.** The GI50 was > 100 µM (inactive).

**Q.** And the GI50 (K562)?
**A.** The GI50 was > 100 µM (inactive).

**Q.** And the GI50 (HT-29)?
**A.** The GI50 was > 100 µM (inactive).

**Q.** What about the GI50 (OVCAR-4) of the same compound?
**A.** The GI50 was > 100 µM (inactive).

**Q.** And the GI50 (SK-MEL-28)?
**A.** The GI50 was > 100 µM (inactive).

**Q.** And the GI50 (NCI-H460)?
**A.** The GI50 was > 100 µM (inactive).

**Q.** And the GI50 (M14)?
**A.** The GI50 was > 100 µM (inactive).

**Q.** What about the GI50 (SNB-75) of the same compound?
**A.** The GI50 was > 100 µM (inactive).

**Q.** What about the GI50 (HOP-92) of the same compound?
**A.** Its GI50 is > 100 µM (inactive).

**Q.** What about the GI50 (NCI/ADR-RES) of the same compound?
**A.** Its GI50 is > 100 µM (inactive).

**Q.** Which results are given for `COC(=O)c1ccc(C)cc1C1CN=NC12Cc1c(C)cccc1C2=O` (centres undefined)?
**A.** GI50 (CCRF-CEM): 53.5 µM (inactive); GI50 (DU-145): 55.7 µM (inactive); GI50 (HOP-62): 46.8 µM (inactive); GI50 (SW-620): 58.9 µM (inactive); GI50 (HL-60): 28.4 µM (inactive); GI50 (SF-539): 89.1 µM (inactive); GI50 (U-251): 42.1 µM (inactive); GI50 (SNB-19): 73.1 µM (inactive); GI50 (HCT-116): 25.6 µM (inactive); GI50 (A498): 52.5 µM (inactive); GI50 (OVCAR-8): 60.1 µM (inactive); GI50 (Hs-578T): 37.6 µM (inactive); GI50 (NCI-H23): 39.4 µM (inactive); GI50 (SF-268): 52.2 µM (inactive); GI50 (MOLT-4): 41.7 µM (inactive); GI50 (IGROV-1): 46.1 µM (inactive); GI50 (LOX IMVI): 24.3 µM (inactive); GI50 (SK-OV-3): 94.8 µM (inactive); GI50 (SK-MEL-2): 43.5 µM (inactive); GI50 (HCC 2998): > 100 µM (inactive); GI50 (T47D): 23.7 µM (inactive); GI50 (TK-10): 99.3 µM (inactive); GI50 (CAKI-1): 50.6 µM (inactive); GI50 (ACHN): 45.4 µM (inactive); GI50 (BT-549): 75 µM (inactive); GI50 (UACC-62): 28.4 µM (inactive); GI50 (OVCAR-5): 73.5 µM (inactive); GI50 (Malme-3M): 58.2 µM (inactive); GI50 (786-0): 52.1 µM (inactive); GI50 (MCF7): 0.394 µM (active); GI50 (UO-31): 42.9 µM (inactive); GI50 (RXF 393): 48.3 µM (inactive); GI50 (MDA-MB-231): 38.5 µM (inactive); GI50 (A549): 49.4 µM (inactive); GI50 (SK-MEL-5): 30 µM (inactive); GI50 (SF-295): 50.4 µM (inactive); GI50 (PC-3): 40.2 µM (inactive); GI50 (SR): 33.3 µM (inactive); GI50 (HCT-15): 28.6 µM; GI50 (MDA-N): 37.5 µM (inactive); GI50 (RPMI-8226): 36.6 µM (inactive); GI50 (KM12): 32.1 µM (inactive); GI50 (COLO 205): 20.2 µM (inactive); GI50 (NCI-H226): 47 µM (inactive); GI50 (NCI-H522): 24.2 µM (inactive); GI50 (EKVX): > 100 µM (inactive); GI50 (UACC-257): 49.7 µM (inactive); GI50 (OVCAR-3): 27 µM (inactive); GI50 (MDA-MB-435): 41 µM (inactive); GI50 (K562): 47.5 µM (inactive); GI50 (HT-29): 31.1 µM (inactive); GI50 (OVCAR-4): 44.1 µM (inactive); GI50 (SK-MEL-28): 80.4 µM (inactive); GI50 (NCI-H460): 64.7 µM (inactive); GI50 (SNB-75): 32 µM (inactive); GI50 (HOP-92): 38.6 µM (inactive); GI50 (NCI/ADR-RES): 20.3 µM (inactive); GI50 (SN12C): 36 µM (inactive)
